# Experimental data published in article PMC5120310, “In Silico Exploration for Novel Type-I Inhibitors of Tie-2/TEK: The Performance of Different Selection Strategy in Selecting Virtual Screening Candidates” (Scientific Reports, 2016).
# Biological target: T1, recombinant human Tie-2 protein (Homo sapiens, UniProt Q02763)
# T1 construct: purchased Thermo Fisher Scientific Inc. PV3628
# Assay: Z′-Lyte FRET enzymatic activity assay of Tie-2 kinase
# Format: biochemical
# Settings: 10 μg/mL preliminary screening, Table S1
# Method: In order to assess the biological inhibitory activity of the VS compounds, Z’-Lyte enzymatic activity assay based on FRET (Fluorescence Resonance Energy Transfer) technology was developed as described above. […] At first, all the compounds obtained from both filtering strategies were preliminary screened for their ability to inhibit Tie-2 kinase activity at the concentration of 10 μg/mL.
# The Tie-2 kinase inhibitor (CAS#: 948557-43-5, purity ≥ 97%) was purchased from Merck Calbiochem (Darmstadt, Germany) and used as a positive control inhibitor in bioassays[40]. […] All the purchased screening compounds were firstly dissolved in dimethyl sulfoxide (DMSO) at a stock concentration of 5 mg/ml. The final working concentration of DMSO is less than 1%.
# Compounds were tested for their ability to inhibit Tie-2 kinase activity using Z′-Lyte® kinase assay kit (ser/thr 5 peptide) with NUNC 384-well plate. In the first step, the test compounds and ATP solution were firstly prepared at 4 × desired concentration. The mixture of recombinant human Tie-2 protein and non-phosphorylated peptide at 2 × desired concentration was prepared in kinase reaction buffer A consisting of 50 mM HEPES (pH 7.5), 0.01% BRIJ-35, 10 mM MgCl2, 4 mM MnCl2, 1 mM EGTA and 2 mM DTT. Reactions were then carried out in a solution containing 2.5 μL test compounds, 5 μL Tie-2/Tyr 05 peptide mixture (10 ng Tie-2 and 2 μM Tyr 05 peptide) and 2.5 μL ATP (100 μM). Then, the assay plate was shaken for 30 seconds on a plate shaker, and incubated for 1 hour at room temperature (20~25 °C). After sufficient kinase reactions, 5 μL development reagent A was added to each well, and the plate was incubated for another hour. Finally, 5 μL stop reagent was added to terminate the reactions, and the coumarin and fluorescein emission signals (excitation: 400 nm; emission: 445 and 520 nm, respectively) were measured on a fluorescence plate reader (BioTek Synergy 4).
# T1 sequence (Q02763 23-1124): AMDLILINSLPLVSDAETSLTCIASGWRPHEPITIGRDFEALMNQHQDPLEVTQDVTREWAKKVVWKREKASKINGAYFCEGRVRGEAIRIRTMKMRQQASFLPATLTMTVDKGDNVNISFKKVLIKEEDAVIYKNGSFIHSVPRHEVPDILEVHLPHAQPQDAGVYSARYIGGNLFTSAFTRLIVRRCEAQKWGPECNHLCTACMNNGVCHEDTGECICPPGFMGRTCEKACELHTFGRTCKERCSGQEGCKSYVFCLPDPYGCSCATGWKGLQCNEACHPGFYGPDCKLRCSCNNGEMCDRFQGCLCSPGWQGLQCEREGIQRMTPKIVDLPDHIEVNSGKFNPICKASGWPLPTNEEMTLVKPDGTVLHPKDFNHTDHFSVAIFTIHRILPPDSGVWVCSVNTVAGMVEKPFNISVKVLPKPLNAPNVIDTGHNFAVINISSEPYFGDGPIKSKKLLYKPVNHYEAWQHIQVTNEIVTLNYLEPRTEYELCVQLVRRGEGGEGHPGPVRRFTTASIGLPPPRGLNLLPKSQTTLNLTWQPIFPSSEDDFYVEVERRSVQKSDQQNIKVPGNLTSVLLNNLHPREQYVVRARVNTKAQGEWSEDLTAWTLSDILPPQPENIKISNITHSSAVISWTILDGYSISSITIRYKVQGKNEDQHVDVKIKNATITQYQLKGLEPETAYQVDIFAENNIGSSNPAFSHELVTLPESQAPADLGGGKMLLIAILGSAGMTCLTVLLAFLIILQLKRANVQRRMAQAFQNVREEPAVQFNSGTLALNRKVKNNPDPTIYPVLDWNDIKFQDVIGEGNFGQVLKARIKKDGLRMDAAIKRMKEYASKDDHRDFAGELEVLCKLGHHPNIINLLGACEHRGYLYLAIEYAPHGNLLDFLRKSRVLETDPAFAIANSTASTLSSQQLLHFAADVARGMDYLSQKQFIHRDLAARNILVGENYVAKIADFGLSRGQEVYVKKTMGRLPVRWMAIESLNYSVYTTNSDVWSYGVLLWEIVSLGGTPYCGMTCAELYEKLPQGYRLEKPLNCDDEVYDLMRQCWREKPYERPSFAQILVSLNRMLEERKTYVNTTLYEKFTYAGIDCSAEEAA
SMILES,Inhibition (%) @10 μg/ml [%],inhibition at 10 µg/mL [%]
O=C(NN=Cc1ccc(N2N=C(c3ccccc3)CC2c2ccccc2)cc1)c1ccncc1 (racemic) [TP-C1-6],16.08±16.2,
CCOc1ccc(NC(=O)C(C)Sc2nc3ccccc3c(=O)n2-c2cccc(C)c2)cc1 (racemic) [TP-C1-36],3.87±1.8,
Fc1ccc(C2CC(c3cccs3)=NN2C(=S)NCCc2ccccc2)cc1 (racemic) [TP-C1-39],56.09±2.14,
c1cncc(CN2CN(CC3CCCO3)c3nc4ccccc4n3C2)c1 (racemic) [TP-C1-56],29.83±0.28,
CCN1C(=O)NC(c2ccc(Cl)cc2)C(C(=O)OCCc2ccccc2)=C1C (racemic) [TP-C2-3],56.11±13.15,
COc1ccc(C2C(C(=O)c3cccs3)=C(O)C(=O)N2CCN(C)C)cc1OC (racemic) [TP-C2-17],66.32±3.22,
O=C(O)CC1SC(=NN=Cc2ccc(OC(=O)c3cccc4ccccc34)cc2)NC1=O (racemic) [TP-C2-19],-280.42±23.11,
COc1cc2c(cc1OC)C(c1ccc(OCc3ccccc3)cc1)CC(=O)N2 (racemic) [TP-C2-27],55.28±4.04,
CC1=C(C(=O)Nc2ccc(C)cc2C)C(c2ccc(OCc3ccccc3)cc2)NC(=S)N1 (racemic) [TP-C2-40],95.39±0.98,
N#Cc1cc2c([nH]c1=O)CC(c1ccccc1)CC2=NNc1ccccc1 (centres unmarked) [TP-C1-2],56.84±0.18,
CCOC(=O)c1ccc(NC(=O)CN2C(=O)c3ccccc3C2=O)cc1 [TP-C1-3],37.64±1.82,
COc1cc(-c2nc3ccccn3c2N=Cc2c[nH]nc2-c2ccccc2)ccc1O [TP-C1-5],25.58±3.23,
O=C(NCCNC(=O)c1cc2ccccc2cc1O)c1cc2ccccc2cc1O [TP-C1-7],9.84±11.04,
CCOc1ccc(CN(CCc2ccc3c(c2)OCO3)Cc2ccc(C)cc2)cc1 [TP-C1-9],17.49±0.65,
Cc1cccc(-n2c(CCN3C(=O)c4ccccc4C3=O)nc3ccccc3c2=O)c1 [TP-C1-10],44.25±1.05,
COc1cc(C=NN=C2SC(CC(=O)O)C(=O)N2c2ccc(O)cc2)ccc1O (centres unmarked) [TP-C1-11],37.56±1.85,
Cc1cccc(C(=O)Nc2ccc(-c3cc4ccccc4oc3=O)cc2)c1 [TP-C1-12],3.6±13.1,
Cc1ccc(-c2cc(C(=O)OCC(=O)c3ccccc3)c3cccc(C)c3n2)cc1 [TP-C1-13],28.98±1.34,
CCOc1cc(-c2nc3sc4c(c3c(=O)[nH]2)CCCC4)ccc1OCc1ccccc1F [TP-C1-14],10.67±4.7,
CCc1ccc2oc(-c3ccc(NC(=S)NC(=O)c4cc5ccccc5o4)cc3)nc2c1 [TP-C1-15],-0.66±5.93,
CCOC(=O)CNS(=O)(=O)c1cc(-c2nnc(Nc3cccc(C)c3)c3ccccc23)ccc1C [TP-C1-16],9.52±4.54,
CCOc1ccc2c(c1)-c1c(ssc1=S)C(C)(C)N2C(=O)CSc1nc(C)cc(O)n1 [TP-C1-17],,89.5 ± 2.93
O=c1cc(-c2ccccc2)c2ccc(OCc3cccc(C(F)(F)F)c3)cc2o1 [TP-C1-18],39.7±2.94,
CC1=C(C(=O)Nc2ccc(C)cc2C)C(c2ccc(O)cc2)NC(=S)N1 (centres unmarked) [TP-C1-21],58.96±3.25,
COc1cc(C(=O)n2c(SCc3ccc(F)cc3)nc3ccccc32)cc(OC)c1OC [TP-C1-22],-46.75±1.97,
COc1cccc(C2C(C(=O)c3ccc(C)o3)=C(O)C(=O)N2CCN(C)C)c1 (centres unmarked) [TP-C1-25],3.13±1.45,

SMILES,Inhibition (%) @10 μg/ml [%],inhibition at 10 µg/mL [%]
COCCCN1C(=O)C(O)=C(C(=O)c2ccc(Cl)cc2)C1c1ccc(O)cc1 (centres unmarked) [TP-C1-26],7.19±0.3,
O=C(CN(Cc1ccc(F)cc1)S(=O)(=O)c1ccc(Cl)cc1)NCc1ccccn1 [TP-C1-27],4.93±5.56,
O=C(CSc1nnc(-c2cccnc2)n1-c1ccccc1)c1ccc(F)cc1 [TP-C1-28],71.3±0.7,
O=C(NCCc1cccc2ccccc12)C1CCCN1S(=O)(=O)c1ccc2ccccc2c1 (centres unmarked) [TP-C1-29],39.83±5.94,
O=C(CC1c2ccccc2Oc2ccccc21)Nc1ccccn1 [TP-C1-30],11.44±0.49,
CCCCc1ccc(NC(=S)C2=C(NCc3ccc4c(c3)OCO4)CC(C)(C)CC2=O)cc1 [TP-C1-31],2.9±8.41,
COc1ccc(CNC(=O)CSc2nc3ccc(NC(=O)c4ccccc4C)cc3s2)cc1 [TP-C1-32],47.23±0.53,
CC(=O)Oc1ccccc1NC(=O)c1ccc2c(c1)C(=O)N(CC1CCCO1)C2=O (centres unmarked) [TP-C1-34],6.95±6.26,
COc1ccc(-c2cc(-c3ccccc3)c(C#N)c(S(=O)(=O)Cc3ccccc3)n2)cc1 [TP-C1-35],69.07±3.54,
O=C(OCc1ccccc1)c1cn(-c2ccccc2)nc1-c1ccncc1 [TP-C1-37],25.51±1.18,
O=C(CN(c1ccc2c(c1)OCCO2)S(=O)(=O)c1ccccc1)Nc1cccnc1 [TP-C1-38],12.5±2.86,
O=c1[nH]c(-c2ccc(OCc3ccccc3F)cc2)nc2ccccc12 [TP-C1-40],2.81±1.73,
Cc1c(C)n(Cc2ccccc2)c2ccc(C(=O)NNC(=S)NCC3CCCO3)cc12 (centres unmarked) [TP-C1-41],32.86±3.03,
Cc1cc(C(=O)c2ccccc2)ccc1OC(=O)CN1C(=O)c2ccccc2C1=O [TP-C1-42],-27.08±4.67,
Cc1ccccc1-c1nc(S(=O)(=O)c2ccc(Cl)cc2)c(NCc2cccnc2)o1 [TP-C1-43],-0.28±1.12,
O=C(c1cc(-c2ccncc2)nc2ccc(Br)cc12)N1CCN(Cc2ccc3c(c2)OCO3)CC1 [TP-C1-45],63.88±1.45,
CC(=O)Nc1c(O)nc(SCC(=O)Nc2ccc(C(C)=O)cc2)[nH]c1=O [TP-C1-47],,81.9 ± 1.73
COc1cccc(OC)c1C(=O)NC(=S)Nc1ccc(NC(=O)c2ccco2)c(Cl)c1 [TP-C1-49],49.58±1.56,
c1ccc(-c2nnc3n2N=C(c2c[nH]c4ccccc24)CS3)cc1 [TP-C1-50],61.04±3.33,
COc1ccccc1C(=O)Nc1ccc(Oc2ccc3c(c2)C(=O)NC3=O)cc1 [TP-C1-51],54.56±1.99,
O=C1c2ccccc2C(=O)N1CCc1nn2c(-c3cccnc3)nnc2s1 [TP-C1-52],,101 ± 2.04
c1ccc(-c2nnc(CSc3nnc(-c4ccncc4)[nH]3)o2)cc1 [TP-C1-53],28.39±0.73,
Cl.O=C(O)c1ccc(Cl)c(-c2ccc(CNCC(O)c3ccccc3)o2)c1 (centres unmarked) [TP-C1-55],20.01±0.68,
O=c1[nH]nc(CCc2n[nH]c(=O)c3ccccc23)c2ccccc12 [TP-C2-1],48.48±7.49,
Cn1c(=O)[nH]c(=O)c2c1nc(NCCCO)n2CC(O)COc1ccccc1 (centres unmarked) [TP-C2-2],51.41±2.9,

# Same assay, conditions: VS candidates of Strategy 1, preliminary screening at 10 μg/mL
row,SMILES,Tie-2 inhibitory activity in words (active / inactive)
1,O=C(NN=Cc1ccc(N2N=C(c3ccccc3)CC2c2ccccc2)cc1)c1ccncc1 (racemic) [TP-C1-6],inactive
2,Cc1ccc(-c2cc(C(=O)OCC(=O)c3ccccc3)c3cccc(C)c3n2)cc1 [TP-C1-13],inactive
3,O=c1cc(-c2ccccc2)c2ccc(OCc3cccc(C(F)(F)F)c3)cc2o1 [TP-C1-18],inactive
4,CCCCc1ccc(NC(=S)C2=C(NCc3ccc4c(c3)OCO4)CC(C)(C)CC2=O)cc1 [TP-C1-31],inactive

# Same assay, conditions: Z′-Lyte assay, 100 μM ATP, n ≥ 2 per concentration; read-out: IC50 (half-maximal inhibitory concentration), Tie-2 kinase
row,SMILES,IC50 [µM]
1,CC1=C(C(=O)Nc2ccc(C)cc2C)C(c2ccc(OCc3ccccc3)cc2)NC(=S)N1 (racemic) [TP-C2-40],4.69 ± 0.37
2,CCOc1ccc2c(c1)-c1c(ssc1=S)C(C)(C)N2C(=O)CSc1nc(C)cc(O)n1 [TP-C1-17],4.45 ± 0.36
3,O=C(CSc1nnc(-c2cccnc2)n1-c1ccccc1)c1ccc(F)cc1 [TP-C1-28],43.6 ± 2.32
4,O=C(OCc1ccccc1)c1cn(-c2ccccc2)nc1-c1ccncc1 [TP-C1-37],36.1 ± 1.33
5,CC(=O)Nc1c(O)nc(SCC(=O)Nc2ccc(C(C)=O)cc2)[nH]c1=O [TP-C1-47],5.15 ± 0.4
6,O=C1c2ccccc2C(=O)N1CCc1nn2c(-c3cccnc3)nnc2s1 [TP-C1-52],15.3 ± 0.68

# Same assay, conditions: from IC50 values
row,SMILES,fold decreased activity compared to TP-C1-17 and TP-C1-47
1,O=C1c2ccccc2C(=O)N1CCc1nn2c(-c3cccnc3)nnc2s1 [TP-C1-52],~ 3 fold

# Same assay, conditions: in the dose-response figure; read-out: IC50 (dose-dependent inhibitory effect), Tie-2 kinase (converted)
row,SMILES,IC50 [µM]
1,CCOc1ccc2c(c1)-c1c(ssc1=S)C(C)(C)N2C(=O)CSc1nc(C)cc(O)n1 [TP-C1-17],4.45
2,CC(=O)Nc1c(O)nc(SCC(=O)Nc2ccc(C(C)=O)cc2)[nH]c1=O [TP-C1-47],5.15
3,O=C1c2ccccc2C(=O)N1CCc1nn2c(-c3cccnc3)nnc2s1 [TP-C1-52],15.3
